Results published in US8247211B2, “Glycopeptide antibiotics” (American Cyanamid Company, priority 2001, dated 2012).

Legend:
[1] = test system: Staphylococcus aureus-SMITH (GC 4543); assay: Acute lethal infection in mice (ED50); assay type: in vivo; conditions: female CD-1 mice, intraperitoneal challenge, intravenous dose 30 min. after infection, 7 day survival ratios
Description: The therapeutic effects of glycopeptide antibiotics of Formula I are determined against acute lethal infections with S. aureus (strain Smith), a penicillin resistant strain of S. pneumoniae (strain GC 1894), and a vancomycin resistant strain of E. fecalis (strain GC 6189 and GC 2246). Female mice, CD-1 (Charles River Laboratories), 20 +1-2 gm, are challenged by intraperitoneal injection of sufficient bacteria (suspended in Trypticase Soy Broth or hog gastric mucin) to kill non-treated controls within 24-48 hr. Antibacterial agents, contained in 0.2 mL of saline or 5% dextrose solution, are administered intravenously 30 min. after infection. Five mice are treated at each dose level. The 7 day survival ratios from 3 separate tests are pooled for calculation of median effective dose (ED50).

[2] = test system: Escherichia coli; assay: In vitro antibacterial evaluation: minimum inhibitory concentration (MIC), broth dilution method; assay type: cell-based; conditions: for MIC Escherichia coli (GC 4559): strain GC 4559; for MIC Escherichia coli (GC 4560): strain GC 4560
Procedure, shortened: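 An MIC is reported for each organism as the least concentration giving inhibition, using broth dilution over 64-0.06 μg/mL with a 5×10^5 CFU/mL inoculum.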

[3] = test system: Streptococcus sp.; assay: as above; assay type: cell-based
Procedure, shortened: (§1)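 First, organisms are seeded at 5×10^5 CFU/mL into Muller-Hinton II […]. Next, antibiotic is applied across 64-0.06 μg/mL by broth dilution (NCCLS M7-A2). Finally, the lowest inhibitory concentration is recorded as MIC.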

[4] = test system: Staphylococcus sp.; assay: as above; assay type: cell-based; conditions: for MIC Coagulase Negative Staphylococcus (GC 4537): strain GC 4537; for MIC Coagulase Negative Staphylococcus (GC 4538): strain GC 4538; for MIC Staphylococcus aureus-SMITH (GC 4536): strain SMITH GC 4536
Procedure, shortened: as §1

[5] = test system: Enterococcus sp.; assay: as above; assay type: cell-based; conditions: for MIC Enterococcus faecalis (ATCC 29212): strain ATCC 29212; for MIC Enterococcus faecalis (GC 4552): strain GC 4552; for MIC Enterococcus faecium (GC 4557): strain GC 4557
Procedure, shortened: as §1

[6] = Streptococcus pneumoniae (GC 1894), broth dilution, 18 hours at 35° C.
[7] = broth dilution, 18 hours at 35° C.
[8] = Enterococcus faecalis (GC 2242), broth dilution, 18 hours at 35° C.

CC(c1ccccc1)C1NC(=O)CNC(=O)C(CO)NC(=O)C(CC2CN(Cc3ccccc3)C(=N)N2C2OC(CO)C(O)C(O)C2O)NC(=O)C(CC2CNC(=N)N2)NC(=O)C(Cc2ccc(OC3OC(CO)C(OC4OC5COC6(OC5C(O)C4O)C4CC5CC(C4)CC6C5)C(O)C3O)cc2)NC1=O (stereo not drawn) [Example 80, Cyclo[3-(2-iminoimidazolidin-4-yl)alanyl-3-(1-benzyl-3-hexopyranosyl-2-iminoimidazolidin-4-yl)alanylserylglycyl-β-methylphenylalanyl-O-[4-O-[4,6-O-(2-adamantylidene)hexopyranosyl]hexopyranosyl]tyrosyl]]
>8: median effective dose (ED50), Staphylococcus aureus-SMITH (GC 4543) [1]
4 µg/mL: MIC Streptococcus pneumoniae (GC 1894) [3, 6] | MIC Streptococcus pneumoniae (GC 1894) ([3]; strain GC 1894)
>64 µg/mL: MIC Escherichia coli (ATCC 25922) ([2]; strain ATCC 25922) | MIC Escherichia coli (GC 4559) [2]
64 µg/mL: MIC Staphylococcus aureus (GC 3053) [4, 7] | MIC Enterococcus faecalis (GC 2691) ([5]; Enterococcus faecalis (GC 2691), broth dilution, 18 hours at 35° C.) | MIC Enterococcus faecalis (GC 3059) ([5]; Enterococcus faecalis (GC 3059), broth dilution, 18 hours at 35° C.) | MIC Enterococcus faecalis (ATCC 29212) [5] | MIC Enterococcus faecalis (GC 2691) ([5]; strain GC 2691) | MIC Enterococcus faecalis (GC 3059) ([5]; strain GC 3059) | MIC Enterococcus faecalis (GC 4552) [5] | MIC Enterococcus faecalis (GC 4554) ([5]; strain GC 4554) | MIC Enterococcus faecium (GC 4556) ([5]; strain GC 4556) | MIC Enterococcus faecalis (GC 6189) ([5]; strain GC 6189)
8 µg/mL: MIC Escherichia coli (GC 4560) [2] | MIC Streptococcus agalactiae (GC 4564) ([3]; Streptococcus agalactiae (GC 4564), broth dilution, 18 hours at 35° C.) | MIC Streptococcus pneumoniae (ATCC 6301) ([3]; Streptococcus pneumoniae (ATCC 6301), broth dilution, 18 hours at 35° C.) | MIC Streptococcus pyogenes (GC 4563) ([3]; Streptococcus pyogenes (GC 4563), broth dilution, 18 hours at 35° C.) | MIC Streptococcus pneumoniae (ATCC 6301) ([3]; strain ATCC 6301) | MIC Streptococcus pyogenes (GC 4563) ([3]; strain GC 4563) | MIC Streptococcus agalactiae (GC 4564) ([3]; strain GC 4564) | MIC Coagulase Negative Staphylococcus (GC 6257) [4, 7]
16 µg/mL: MIC Streptococcus pneumoniae (GC 4565) ([3]; Streptococcus pneumoniae (GC 4565), broth dilution, 18 hours at 35° C.) | MIC Streptococcus pneumoniae (GC 4565) ([3]; strain GC 4565) | MIC Enterococcus faecium (GC 4557) [5]
32 µg/mL: MIC Coagulase Negative Staphylococcus (GC 4547) [4, 7] | MIC Coagulase Negative Staphylococcus (GC 4548) [4, 7] | MIC Coagulase Negative Staphylococcus (GC 4549) [4, 7] | MIC Coagulase Negative Staphylococcus (GC 4551) [4, 7] | MIC Staphylococcus aureus (ATCC 29213) [4, 7] | MIC Staphylococcus aureus (GC 1131) [4, 7] | MIC Staphylococcus aureus (GC 3051) [4, 7] | MIC Staphylococcus aureus (GC 4541) [4, 7] | MIC Staphylococcus aureus (GC 4542) [4, 7] | MIC Staphylococcus aureus (GC 4544) [4, 7] | MIC Staphylococcus aureus (GC 4545) [4, 7] | MIC Staphylococcus aureus SMITH (GC 4543) [4, 7] | MIC Staphylococcus haemolyticus (GC 4546) [4, 7] | MIC Staphylococcus aureus-SMITH (GC 4543) ([4]; strain SMITH GC 4543, broth dilution, 18 hours at 35° C.) | MIC Enterococcus faecalis (GC 2242) [5, 8] | MIC Enterococcus faecalis (GC 2242) ([5]; strain GC 2242) | MIC Enterococcus faecium (GC 2243) ([5]; strain GC 2243) | MIC Enterococcus faecalis (GC 4553) ([5]; strain GC 4553) | MIC Enterococcus avium (GC 4558) ([5]; strain GC 4558)

CCCCCC(=O)OCC1OC(OC2C(CO)OC(Oc3ccc(CC4NC(=O)C(C(C)c5ccccc5)NC(=O)CNC(=O)C(CO)NC(=O)C(C(O)C5CNC(=N)N5C5OC(CO)C(O)C(O)C5O)NC(=O)C(C(O)C5CNC(=N)N5)NC4=O)cc3)C(O)C2O)C(O)C(O)C1O (stereo not drawn) [Example 95b, Cyclo[glycyl-β-methylphenylalanyl-O-[4-O-(6-O-hexanoylhexopyranosyl)hexopyranosyl]-tyrosyl-3-[2-iminoimidazolidin-4-yl)seryl-3-(3-hexopyranosyl-2-iminoimidazolidin-4-yl)-serylseryl]]
4 µg/mL: MIC Enterococcus faecalis (ATCC 29212) [5]
8 µg/mL: MIC Enterococcus faecalis (GC 2242) [5, 8] | MIC Enterococcus faecalis (GC 2242) ([5]; strain GC 2242) | MIC Enterococcus faecalis (GC 4552) [5]
<0.5 µg/mL: MIC Escherichia coli (GC 4560) [2]
64 µg/mL: MIC Escherichia coli (GC 4559) [2]
1 µg/mL: MIC Staphylococcus aureus (ATCC 29213) [4, 7] | MIC Staphylococcus aureus (GC 1131) [4, 7] | MIC Staphylococcus aureus SMITH (GC 4536) [4, 7] | MIC Coagulase Negative Staphylococcus (GC 4538) [4] | MIC Coagulase Negative Staphylococcus (GC 4547) ([4]; strain GC 4547) | MIC Staphylococcus aureus-SMITH (GC 4536) [4, 7]
2 µg/mL: MIC Staphylococcus aureus (GC 4535) [4, 7] | MIC Coagulase Negative Staphylococcus (GC 4537) [4]
4 mg/kg: median effective dose (ED50), Staphylococcus aureus-SMITH (GC 4543) [1]

CC(c1ccccc1)C1NC(=O)CNC(=O)C(CO)NC(=O)C(CC2CN(Cc3ccccc3)C(=NCc3ccccc3)N2C2OC(CO)C(O)C(O)C2O)NC(=O)C(CC2CN(Cc3ccccc3)C(=NCc3ccccc3)N2Cc2ccccc2)NC(=O)C(Cc2ccc(OC3OC(CO)C(OC4OC(CO)C(O)C(O)C4O)C(O)C3O)cc2)NC1=O (stereo not drawn) [Example 73, Cyclo[3-[1,3-benzyl-2-(benzylimino)imidazolidin-4-yl]alanyl-3-[1-benzyl-2-(benzylimino)-3-hexopyranosylimidazolidin-4-yl]alanylserylglycyl-β-methylphenylalanyl-O-(4-O-hexopyranosylhexopyranosyl)tyrosyl]]
64 µg/mL: MIC Streptococcus pneumoniae (GC 1894) [3, 6] | MIC Streptococcus pneumoniae (GC 1894) ([3]; strain GC 1894)
>8: median effective dose (ED50), Staphylococcus aureus-SMITH (GC 4543) [1]
16 µg/mL: MIC Escherichia coli (GC 4560) [2]

CCCCCCC(=O)OCC1OC(OC2C(CO)OC(Oc3ccc(CC4NC(=O)C(C(C)c5ccccc5)NC(=O)CNC(=O)C(CO)NC(=O)C(C(O)C5CNC(=N)N5C5OC(CO)C(O)C(O)C5O)NC(=O)C(C(O)C5CNC(=N)N5)NC4=O)cc3)C(O)C2O)C(O)C(O)C1O (stereo not drawn) [Example 97b, Cyclo[glycyl-β-methylphenylalanyl-O-[4-O-(6-O-heptanoylhexopyranosyl)hexopyranosyl]-tyrosyl-3-(2-iminoimidazolidin-4-yl)seryl-3-(3-hexopyranosyl-2-iminoimidazolidin-4-yl)-serylseryl]]
32 µg/mL: MIC Escherichia coli (GC 4559) [2]
0.5 µg/mL: MIC Staphylococcus aureus SMITH (GC 4536) [4, 7] | MIC Staphylococcus aureus-SMITH (GC 4536) [4, 7]
1 µg/mL: MIC Escherichia coli (GC 4560) [2] | MIC Staphylococcus aureus (ATCC 29213) [4, 7] | MIC Staphylococcus aureus (GC 1131) [4, 7] | MIC Staphylococcus aureus (GC 4535) [4, 7] | MIC Coagulase Negative Staphylococcus (GC 4537) [4] | MIC Coagulase Negative Staphylococcus (GC 4537) [4, 7] | MIC Coagulase Negative Staphylococcus (GC 4538) [4] | MIC Coagulase Negative Staphylococcus (GC 4538) [4, 7] | MIC Coagulase Negative Staphylococcus (GC 4547) ([4]; strain GC 4547) | MIC Coagulase Negative Staphylococcus (GC 4547) ([4]; strain GC 4547, broth dilution, 18 hours at 35° C.)
8 mg/kg: median effective dose (ED50), Staphylococcus aureus-SMITH (GC 4543) [1]
4 µg/mL: MIC Enterococcus faecalis (ATCC 29212) [5] | MIC Enterococcus faecalis (GC 4552) [5]
2 µg/mL: MIC Enterococcus faecalis (GC 2242) ([5]; strain GC 2242)

CC(c1ccccc1)C1NC(=O)CNC(=O)C(CO)NC(=O)C(C(O)C2CN(Cc3ccccc3)C(=NCc3ccccc3)N2C2OC(CO)C(O)C(O)C2O)NC(=O)C(C(O)C2CN(Cc3ccccc3)C(=NCc3ccccc3)N2Cc2ccccc2)NC(=O)C(Cc2ccc(OC3OC(CO)C(OC4OC(CO)C(O)C(O)C4O)C(O)C3O)cc2)NC1=O (stereo not drawn) [Example 62, Cyclo[glycyl-β-methylphenylalanyl-O-(4-O-hexopyranosylhexopyranosyl)tyrosyl-3-[1,3-dibenzyl-2-(benzylimino)imidazolidin-4-yl]seryl-3-[1-benzyl-2-(benzylimino)-3-hexopyranosylimidazolidin-4-yl]serylseryl]]
>8: median effective dose (ED50), Staphylococcus aureus-SMITH (GC 4543) [1]
4 µg/mL: MIC Escherichia coli (GC 4560) [2]
64 µg/mL: MIC Streptococcus pneumoniae (GC 1894) [3, 6] | MIC Streptococcus pneumoniae (GC 1894) ([3]; strain GC 1894) | MIC Enterococcus faecium (GC 4557) [5]
